Holding throughout (format): in vivo
Experiment [1] concerns Poa annua (POAAN). The experiment in a line: A. Herbicidal pre-emergence efficacy, POAAN. In a few lines:
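Applied before emergence onto covering soil at rates of 1280 g/ha or less, using 600 L/ha spray water with 0.5% additive. Scoring: visual % efficacy after ~3 weeks, greenhouse.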

The subject of experiment [2] is Digitaria sanguinalis (DIGSA). The experiment in a line: B. Herbicidal post-emergence efficacy, DIGSA. The note with it: rated visually after about 3 weeks. The method, boiled down:
(§1)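 Weeds grown in sandy loam in greenhouse pots, sprayed at one-leaf stage (2–3 weeks after sowing) with WP or EC formulations as aqueous suspension/emulsion plus 0.5% additive at 600 L/ha water, rates up to 1280 g/ha. Visual efficacy rated about 3 weeks later versus untreated controls (0% = like control, 100% = dead).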

Experiment [3] relates to Echinochloa crus-galli (ECHCG). The experiment in a line: B. Herbicidal post-emergence efficacy, ECHCG. The following applies: rated visually after about 3 weeks. In a few lines: as §1
Experiment [4] concerns Poa annua (POAAN). Briefly: B. Herbicidal post-emergence efficacy, POAAN. In a few lines:
as §1

The test system of experiment [5] is Abutilon theophrasti (ABUTH). Briefly: C. Herbicidal pre-emergence efficacy, ABUTH. The note with it: scored after about 3 weeks. The method, boiled down:
(§2)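 Pre-emergence test: formulated compounds sprayed as aqueous suspension or emulsion with 0.5% additive at 600 l/ha onto soil covering sown seeds, at rates corresponding to 320 g/ha or less. After about 3 weeks in greenhouse, efficacy scored visually as percent versus untreated controls (100% = plants dead).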

The subject of another experiment is Viola tricolor (VIOTR). Briefly: C. Herbicidal pre-emergence efficacy, VIOTR. The method, boiled down: as §2
Experiment [6] has as its system Pharbitis purpurea (PHBPU). The experiment in a line: E. Herbicidal post-emergence efficacy, PHBPU. The method, boiled down:
(§3)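 Visual scoring against untreated plants was done roughly 3 weeks after spraying (0% = no effect, 100% = plants dead). Spray application at 320 g/ha or lower, 600 l/ha water with 0.5% additive, was made onto green parts of one-leaf-stage greenhouse plants grown 2-3 weeks in sandy loam.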

The subject of another experiment is Setaria viridis (SETVI). Briefly: E. Herbicidal post-emergence efficacy, SETVI. The method, boiled down: as §3

Turning to `CC(C)CCS(=O)(=O)Oc1ccccc1Oc1ncc(Cl)cn1` [Example I-25], the “Pre-emergence efficacy against POAAN” value with Poa annua (POAAN) [1] (dosage 320 g/ha) and in the experiment on Poa annua (POAAN) [1] (dosage 1280 g/ha) was 100% each time. The “Post-emergence efficacy against DIGSA in %” value stood at 90% in experiment [2] (320 g/ha) and 100% in experiment [2] (1280 g/ha). Also, the “Post-emergence efficacy against ECHCG in %” value was 90% in experiment [3] (320 g/ha) and 100% in experiment [3] (1280 g/ha). Moreover, the “Post-emergence efficacy against POAAN” value stood at 90% with Poa annua (POAAN) [4] (320 g/ha) and 100% in the experiment with Poa annua (POAAN) [4] (1280 g/ha). For the same molecule, in experiment [5] (320 g/ha), the “Pre-emergence efficacy against ABUTH” value turned out to be 100%. The “Pre-emergence efficacy against VIOTR in %” value with Viola tricolor (VIOTR) (application rate 80 g/ha) is reported as 90%; in the experiment with Viola tricolor (VIOTR) (application rate 320 g/ha), 100%. Moreover, the “Post-emergence efficacy against PHBPU in %” value is given as 80% in experiment [6] (application rate 80 g/ha) and 90% in experiment [6] (application rate 320 g/ha). Moreover, in the experiment on Setaria viridis (SETVI) (application rate 320 g/ha), the “Post-emergence efficacy against SETVI in %” value is given as 100%.
On to `O=S(=O)(CCC(F)(F)F)Oc1c(Cl)cccc1Oc1ncc(Br)cn1` [Example I-32], for which the “Pre-emergence efficacy against POAAN” value in the experiment on Poa annua (POAAN) [1] (dosage 320 g/ha) and with Poa annua (POAAN) [1] (dosage 1280 g/ha) was 90% each time. Also, the entries for the “Post-emergence efficacy against DIGSA in %” value in experiment [2] (320 g/ha) and in experiment [2] (1280 g/ha) were 90% and 100%, respectively. For the same molecule, the “Post-emergence efficacy against ECHCG in %” value in experiment [3] (80 g/ha) was 90%; in experiment [3] (320 g/ha) it was 90%; in experiment [3] (1280 g/ha), 100%. Moreover, the “Post-emergence efficacy against POAAN” value amounted to 90% in the experiment with Poa annua (POAAN) [4] (80 g/ha), 100% in the experiment with Poa annua (POAAN) [4] (320 g/ha) and 100% with Poa annua (POAAN) [4] (1280 g/ha). The figures for the “Pre-emergence efficacy against ABUTH” value in experiment [5] (80 g/ha) and in experiment [5] (320 g/ha) were 90% and 100%, respectively. Also, the “Pre-emergence efficacy against VIOTR in %” value in the experiment with Viola tricolor (VIOTR) (application rate 80 g/ha) and in the experiment with Viola tricolor (VIOTR) (application rate 320 g/ha) was 100% in each case. The “Post-emergence efficacy against PHBPU in %” value in experiment [6] (application rate 80 g/ha) and in experiment [6] (application rate 320 g/ha) was 80% throughout. Also, the “Post-emergence efficacy against SETVI in %” value with Setaria viridis (SETVI) (application rate 80 g/ha) is 80%; in the experiment on Setaria viridis (SETVI) (application rate 320 g/ha), 100%.
`O=S(=O)(CCCC(F)(F)F)Oc1c(Cl)cccc1Oc1ncc(Br)cn1` [Example I-34]: the “Pre-emergence efficacy against POAAN” value in the experiment on Poa annua (POAAN) [1] (dosage 320 g/ha) and with Poa annua (POAAN) [1] (dosage 1280 g/ha) was 90% throughout. Also, the “Post-emergence efficacy against DIGSA in %” value in experiment [2] (1280 g/ha) was 100%. In addition, the “Post-emergence efficacy against ECHCG in %” value in experiment [3] (320 g/ha) and in experiment [3] (1280 g/ha) was 90% throughout. In addition, the “Post-emergence efficacy against POAAN” value with Poa annua (POAAN) [4] (320 g/ha) and in the experiment with Poa annua (POAAN) [4] (1280 g/ha) was 100% each time. The “Pre-emergence efficacy against ABUTH” value was 80% in experiment [5] (80 g/ha) and 90% in experiment [5] (320 g/ha). The “Pre-emergence efficacy against VIOTR in %” value in the experiment with Viola tricolor (VIOTR) (application rate 80 g/ha) and in the experiment on Viola tricolor (VIOTR) (application rate 320 g/ha) was 100% in each case. In addition, the “Post-emergence efficacy against PHBPU in %” value is on record as 80% in experiment [6] (application rate 80 g/ha) and 100% in experiment [6] (application rate 320 g/ha). The “Post-emergence efficacy against SETVI in %” value with Setaria viridis (SETVI) (application rate 80 g/ha) and in the experiment with Setaria viridis (SETVI) (application rate 320 g/ha) was 90% throughout.
Turning to `O=S(=O)(CCC(F)(F)F)Oc1c(F)cccc1Oc1ncc(Cl)cn1` [Example I-48], the “Pre-emergence efficacy against POAAN” value with Poa annua (POAAN) [1] (dosage 80 g/ha) worked out at 90%; with Poa annua (POAAN) [1] (dosage 320 g/ha) it was 100%; with Poa annua (POAAN) [1] (dosage 1280 g/ha) it was 100%. Moreover, the “Post-emergence efficacy against DIGSA in %” value in experiment [2] (320 g/ha) and in experiment [2] (1280 g/ha) was 90% in each case. Also, the “Post-emergence efficacy against ECHCG in %” value in experiment [3] (320 g/ha) and in experiment [3] (1280 g/ha) was 90% each time. In addition, the “Post-emergence efficacy against POAAN” value in the experiment on Poa annua (POAAN) [4] (80 g/ha), in the experiment on Poa annua (POAAN) [4] (320 g/ha) and in the experiment with Poa annua (POAAN) [4] (1280 g/ha) was 90% each time. In addition, the “Pre-emergence efficacy against ABUTH” value in experiment [5] (80 g/ha) and in experiment [5] (320 g/ha) was 100% in each case. Also, the “Pre-emergence efficacy against VIOTR in %” value with Viola tricolor (VIOTR) (application rate 80 g/ha) and in the experiment on Viola tricolor (VIOTR) (application rate 320 g/ha) was 100% in each case. For the same molecule, the “Post-emergence efficacy against PHBPU in %” value in experiment [6] (application rate 80 g/ha) and in experiment [6] (application rate 320 g/ha) was 100% throughout. Besides, the “Post-emergence efficacy against SETVI in %” value in the experiment on Setaria viridis (SETVI) (application rate 80 g/ha) and in the experiment on Setaria viridis (SETVI) (application rate 320 g/ha) was 100% throughout.
Regarding `O=S(=O)(CCCC(F)(F)F)Oc1c(F)cccc1Oc1ncc(Cl)cn1` [Example I-49], the figures for the “Pre-emergence efficacy against POAAN” value in the experiment on Poa annua (POAAN) [1] (dosage 80 g/ha), in the experiment with Poa annua (POAAN) [1] (dosage 320 g/ha) and in the experiment on Poa annua (POAAN) [1] (dosage 1280 g/ha) were 90%, 100% and 100%, respectively. For the same molecule, the “Post-emergence efficacy against DIGSA in %” value in experiment [2] (320 g/ha) and in experiment [2] (1280 g/ha) was 90% each time. For the same molecule, the “Post-emergence efficacy against ECHCG in %” value in experiment [3] (80 g/ha), in experiment [3] (320 g/ha) and in experiment [3] (1280 g/ha) was 90% throughout. In addition, the “Post-emergence efficacy against POAAN” value in the experiment with Poa annua (POAAN) [4] (1280 g/ha) stood at 90%. Further, the “Pre-emergence efficacy against ABUTH” value in experiment [5] (80 g/ha) and in experiment [5] (320 g/ha) was 100% throughout. Also, the “Pre-emergence efficacy against VIOTR in %” value in the experiment on Viola tricolor (VIOTR) (application rate 80 g/ha) and with Viola tricolor (VIOTR) (application rate 320 g/ha) was 100% in each case. Further, the “Post-emergence efficacy against PHBPU in %” value in experiment [6] (application rate 80 g/ha) and in experiment [6] (application rate 320 g/ha) was 100% in each case. The “Post-emergence efficacy against SETVI in %” value with Setaria viridis (SETVI) (application rate 80 g/ha) and in the experiment with Setaria viridis (SETVI) (application rate 320 g/ha) was 100% throughout.

(Values after patent publication US20240174618A1, “SUBSTITUTED (2-HETEROARYLOXYPHENYL)SULFONATES, SALTS THEREOF AND THEIR USE AS HERBICIDAL AGENTS” (Bayer Aktiengesellschaft, priority 2021, published 2024).)
